Measured values from US20020028790A1, “Use of agonists or antagonists of P2 purinoceptors for the prevention glutamate-evoked cytotoxicity” (priority 1995, published 2002).

Assays:
[1] = system: cerebellar granule neurons; experiment: Glutamate-evoked cytotoxicity in cerebellar granule primary cultures (cell survival by count of intact viable nuclei); assay type: cell-based; conditions: for cellular survival / abolition of the cytotoxic action of glutamate: 100 μM compound in the simultaneous presence of 100 μM glutamate (acute exposure); for total neuronal population protected from cell death: incubated for the next 20 hours
Excerpt: Always according to the present invention, these compounds are used to prevent glutamate-evoked cytotoxicity in the nervous system's cells, particularly in CNS neurons. As a cellular model system for CNS neurons we have adopted postnatal rat cerebellar neurons. These cells, which are among the best characterized primary neuronal cultures, when isolated from postnatal rat cerebellum (Lasher R. S., and Zagon I. S., Brain Res. 41, 428-438, 1972), develop in vitro their mature phenotype as interneurons which use glutamate as a neurotransmitter and furthermore constitute an excellent model system for the study of glutamate-mediated cytotoxicity.
By exposing granule neurons to 100 μM glutamate for 15-30 min is obtained (after 15-20 hours) 80-100% of total cell death. […] The effects of basilen blue on cerebellar granule cell morphology reveal, despite the exposure to glutamate, which otherwise induces complete cell death, apparently healty-looking cell bodies that do bear a dense network of highly branching processes. Adhesion and neurites fasciculation are also preserved by basilen blue.
Basilen Blue prevents cytotoxicity induced by glutamate in cerebellar granule primary cultures: effects of dose-response and modality of addition. Replicate cerebellar granule cultures at 8 DIV were exposed for 25 min to 100 μM glutamate, in the simultaneous presence of different concentrations of basilen blue (FIG. 1). After 20 hours, the cultures were assessed for cultures were assessed for cell survival by direct count of intact viable nuclei. The asterisk represents the % of nuclei obtained after simultaneous addition to the cells of 100 μM glutamate and 100 μM caffeine. In FIG. 2, replicate cerebellar granule cultures at 8 DIV were exposed for 25 min to 100 μM glutamate. At different time after glutamate withdrawl, basilen blue (100 μM) was added to the medium until the cultures, 20 hours later, were assessed for cell survival by direct count of intact viable nuclei. The asterisk represents the % of nuclei obtained after simultaneous addition to the cells of 100 μM glutamate and 100 μM basilen blue. In FIG. 3, replicate cultures were pretreated in the presence of 100 μM basilen blue for different time, before the addition of 100 μM glutamate for 25 min (performed in the absence of basilen blue). After 20 hours the cultures were assessed for cell survival.
The asterisk represents the % of nuclei obtained after simultaneous addition to the cells of 100 μM glutamate and 100 μM basilen blue. Counts represent means±SEM (n=4) and 100% of cell survival represents 1.75−2×10^6 total cells.
METHODS. Approximately 20 hours after exposure of granule cells to glutamate, the culture medium was removed and replaced with 1 ml of a detergent-containing lysing solution (0.5% ethyl hexadecyl dimethyl—ammonium bromide, 0.28% acetic acid, 0.5% Triton X-100, 3 mM NaCl, 2 mM MgCl2, in PBS pH 7.4 diluted 1/10).
After 1-2 minutes, the cells were triturated a few times, providing a uniform uspension of single, intact viable nuclei. The latter were quantified by ounting in a hemacytometer. Broken or damaged nuclei were not included in the counts.
Culturing cerebellar granule cells in the presence of AMPPNP: modulation of glutamate-dependent cell death, Ca^++ uptake and aspartate release. Primary cerebellar granule cultures were prepared and starting at 1 DIV some of time were daily supplemented with 100 μM AMPPNP.(FIG. 6) At 8 DIV, after two washes, some of the cultures were incubated at 20° C. for 25 min with 100 μM glutamate. The following day, they were assessed for cell survival, as previously described.

[2] = system: cerebellar granule neurons; experiment: Glutamate-induced release of [3H] aspartate from cerebellar granule cells; assay type: cell-based, rat
Excerpt: Since D-[^3H] aspartate release has been often used as a measure of the functional state of cerebellar granule neurons cultured in vitro and depolarization- or glutamate-evoked aspartate release is a feature progressively aquired by these cells along with neuronal maturation, we decided to test this parameter to further study the biological effects and possible mechanisms used by basilen blue in the prevention of cell death. We find that basilen blue inhibits glutamate-induced release of [^3H] aspartate with an IC50 of about 10 μM. […] Also a cronic exposure of granule neurons for 8 days to 100 μM AMPPNP inhibits by 70-80% the glutamate-evoked release of [^3H] aspartate.
(§1) (FIG. 7) Replicate cerebellar granule cultures at 8 DIV were incubated for 1 min in Locke's solution in the presence of 45 Ca^++ (1 μCi/ml), with or without 100 μM glutamate, and were then assessed for Ca^++ influx. (FIG. 8) Replicate cerebellar granule cultures at 8 DIV were incubated for 5 min in Locke's solution, in the presence of [^3H] D-2,3 aspartic acid (1 μCi/ml, final concentration 40 nM) and were then assessed for aspartate release, in the presence or absence of 100 μM glutamate. Data are expressed as means±SEM (n=3).
(§2) Basilen Blue inhibits release of aspartate and uptake of Ca^++ induced by glutamate in cerebellar granule cells. (FIG. 9) Replicate cerebellar granule cultures at 8 DIV were incubated for 5 min in Locke's solution in the presence of [^3H] D-2,3 aspartic acid (1 μCi/ml, final concentration 40 nM). After two washes, the cultures were then incubated for 1 min in Locke's solution with or without 100 μM glutamate and in the presence of different concentrations of basilen blue. The buffer removed from the cultures during this release phase was collected into vials and counted for radioactivity. The asterisk represents the release of aspartate obtained in the simultaneous presence of 100 μM glutamate and 100 μM caffeine. Cells were dissolved in 0.1 M NaOH and protein concentrations were determined by the method of Bradford, with bovine serum albumin as standard. (FIG. 10) Replicate cerebellar granule cultures at 8 DIV were incubated for 1 min in Locke's solution in the presence of 45 Ca^++ (1 μCi/ml), with our without 100 μM glutamate, and in the simultaneous presence of different concentrations of basilen blue. After two washes with ice-cold 154 mM choline chloride, 2 mM EDTA, the cells were lysed in 0.1 M NaOH and aliquots were collected for measuring Ca^++ influx (by radioactive counting) and protein concentration. The asterisk represents the Ca^++ influx obtained in the simultaneous presence of 100 μM glutamate and 100 μM caffeine. Data are expressed as means±SEM (n=3).

[3] = system: cerebellar granule neurons; experiment: Glutamate-evoked Ca2+ uptake in cerebellar granule cells; assay type: cell-based, rat
Experimental: Glutamate-dependent neurotoxicity is often accompanied also in cerebellar granule neurons with increase in intracellular Ca^2+ via a multistep process. […] Also this value is in accordance with the IC50 found for inhibition of ATP binding, cytotoxicity and aspartate release. The basilen blue-dependent inhibition occurs when Ca^2+ uptake is measured for short (1 min) or for longer times (3, 10, and 25 min). The cronic exposure of granule neurons for 8 days to 100 μM AMPPNP inhibits by 50-70% glutamate-evoked Ca^2+ influx, similarly to the inhibition of cytotoxicity and aspartate release.
as §1, §2

[4] = system: membranes of granule neurons ([3H] ATP binding); experiment: Binding of [3H] ATP to cerebellar granule cell membranes; design: species or system rat; conditions: 1 h at 4° C, read-out: IC50 for inhibition of binding of [3H] ATP to membranes
Experimental: (§3) Basilen blue inhibits binding of [^3H] ATP to membranes of granule neurons with an IC50 of about 10 μM, that corresponds to the IC50 that prevents glutamate-evoked cytotoxicity. Binding studies with [^3H]
Basilen Blue inhibits binding of ATP to cerebellar granule cell membranes, but to uptake of aspartate. Membranes were prepared from 8 DIV cerebellar granule ells and 20 μg of protein were incubated with [^3H] ATP (0.5 μCi/ml, final concentration […]) (FIG. 4), in the presence of different concentrations of basilen blue, for 1 h at 4° C. Specific binding is shown and counts represent means±SEM (n=3). The asterisk represents the binding performed in the presence of 100 μM caffeine. In FIG. 5, replicate cerebellar granule cultures at 8 DIV were washed wice and incubated for different times in Locke's solution with [^3H] […] After two washes, cells were dissolved in 0.1 M NaOH and counted for incorporated radioactivity by liquid scintillation counting. […] Protein concentrations were determined by the method of Bradford with ovine serum albumin as standard.
METHODS. […] ATP, the samples (1 ml) were vacuum-filtered through Whatman GF/B glass fiber filters and the filters were immediately washed (3×4 s) with 5 ml of 50 mM Tris-HCl (pH 7.4), air dried and assessed for specifically bound radioactivity by liquid scintillation counting.

[5] = system: intact cells (granule neurons, [3H] ATP binding); experiment: Binding of [3H] ATP to intact cells; design: species or system rat
Experimental: as §3

[6] = system: cerebellar granule neurons; experiment: Uptake of [3H] aspartate by cerebellar granule cultures; assay type: cell-based, rat; conditions: same basilen blue treatments as for cytotoxicity
Experimental: The effects of basilen blue on protection from cytotoxicity are linear with time and depend on the modality of somministration of the compound. When basilen blue is added to the cells 10 min after glutamate, and then incubated with granule neurons for only 15 min, it protects from cell death 60-70% of the entire neuronal population; if somministered only for the last 5 min of treatment of the cells with glutamate, basilen blue sustains survival of 25-40% of total neurons. When instead it is added 1-2 min or 30 min or 2 hours after exposure of granule neurons to glutamate (and then incubated with the cells for the next 20 hours) basilen blue protects from cell death respectively 55-70%, 30% and 10% of the total neuronal population. When it is added before (not during or after) exposure of granule neurons to glutamate, basilen blue requires a pretreatment of at least 20-25 hours in order to prevent by 70-80% the cytotoxic action of glutamate. Inhibition of aspartate uptake is not obtained as a consequence of these same treatments.
Basilen Blue inhibits binding of ATP to cerebellar granule cell membranes, but to uptake of aspartate. […] After two washes, cells were dissolved in 0.1 M NaOH and counted for incorporated radioactivity by liquid scintillation counting. […] Protein concentrations were determined by the method of Bradford with ovine serum albumin as standard.

[7] = chronic exposure for 8 days to 100 μM

## Nc1c(S(=O)(=O)O)cc(Nc2ccc(Nc3nc(Cl)nc(Nc4ccccc4S(=O)(=O)O)n3)c(S(=O)(=O)O)c2)c2c1C(=O)c1ccccc1C2=O [cibacron blue, Cibacron Blue 3GA]
[1]
  prevention of glutamate-evoked cell death (in words): effective

## Cn1c(=O)c2c(ncn2C)n(C)c1=O [Caffeine]
[1]; up to 100 μM
  abolition of the cytotoxic action of glutamate: does not abolish

## Nc1ncnc2c1ncn2C1OC(COP(=O)(O)OP(=O)(O)NP(=O)(O)O)C(O)C1O (stereo not drawn) [AMPPNP, 5-adenylylimidodiphosphate]
[1]
  cellular survival / abolition of the cytotoxic action of glutamate: not effective
[1]; cells cultured in continuous presence of 100 μM compound from day 1 (not later than day 2) in vitro
  inhibition of glutamate-induced cytotoxicity: 50-60%
[2]; [7]
  inhibition of glutamate-evoked release of [3H] aspartate: 70-80%
[3]; [7]
  inhibition of glutamate-evoked Ca2+ influx: 50-70%

## Basilen Blue E 3G
[1]
  cellular survival / abolition of the cytotoxic action of glutamate: completely sustains cellular survival
[1]; 100 μM glutamate, compound present simultaneously, read-out: IC50 for prevention of glutamate-evoked cell death
  IC50: 10 to 20 µM
[1]; added 1-2 min after exposure to glutamate
  total neuronal population protected from cell death: 55-70%
[1]; added 10 min after glutamate, then incubated with neurons for only 15 min
  neuronal population protected from cell death: 60-70%
[1]; added 30 min after exposure to glutamate
  total neuronal population protected from cell death: 30%
[1]; added 2 hours after exposure to glutamate
  total neuronal population protected from cell death: 10%
[1]; despite exposure to glutamate, 100 μM basilen blue
  adhesion and neurites fasciculation: preserved
[1]; given only for the last 5 min of glutamate treatment
  survival of total neurons: 25-40%
[1]; within the first 5 min of treatment with glutamate, basilen blue added
  acute response (rapid swelling of the cell body and loss of brightness): prevented
[4]
  IC50: ~10 µM
[5]
  inhibition of [3H] ATP binding to intact cells: as effective
[2]; 100 μM glutamate, read-out: IC50 for inhibition of glutamate-induced release of [3H] aspartate
  IC50: ~10 µM
[2]; release measured for 1, 3, 10, 25 min or in presence of Mg2+
  extent of inhibition of glutamate-induced [3H] aspartate release: almost complete
[2]; without glutamate
  basal release of [3H] aspartate: does not affect
[3]; 100 μM glutamate, read-out: IC50 for inhibition of glutamate-evoked Ca2+ uptake
  IC50: ~10 µM
[3]; uptake measured for 1, 3, 10 and 25 min
  extent of inhibition of glutamate-evoked Ca2+ uptake: almost completely abolishes
[3]; without glutamate
  basal Ca2+ uptake: not basal
[6]
  inhibition of aspartate uptake: not obtained
